Reference: US8207135B2, “Compositions for and methods of enhancing the immune response to antigens” (Wittycell, priority 2007, dated 2012)

Assays:
[1] = tested on: Ova-specific target cells; experiment: in vivo cytotoxic specific cell lysis assay (CD8+ T cell response) in immunized mice; set-up: species or system mouse
[2] = tested on: IFNγ; experiment: in vivo IFNγ release in sera by ELISA 24 hours after inoculation; set-up: species or system C57BL/6 mice; settings: Quantikine kit, FIG. 4
Method: To test the ability of the adjuvant test compounds to stimulate in vivo cytokine release, C57BL/6 mice were administered the compounds at different concentrations intravenously and the production of IFNγ in sera was measured 24 hours later by ELISA. Groups of 3 mice were inoculated intravenously (tail vein) on day 0 as follows: • Group 1: 100 μl of PBS alone • Group 2: 1 μg of αGalCer in 100 μl of PBS • Group 3: 100 ng of αGalCer in 100 μl of PBS • Group 4: 1 ng of αGalCer in 100 μl of PBS • Group 5: 0.1 ng of αGalCer in 100 μl of PBS • Group 6: 100 ng of αGalCer and 100 μg of Ova in 100 μl of PBS • Group 7: 1 μg of PBS-57 in 100 μl of PBS • Group 8: 100 ng of PBS-57 in 100 μl of PBS • Group 9: 1 ng of PBS-57 in 100 μl of PBS • Group 10: 0.1 ng of PBS-57 in 100 μl of PBS • Group 11: 100 ng of PBS-57 and 400 μg of Ova into 100 μl of PBS • Group 12: 1 μg of PBS-14 in 100 μl of PBS • Group 13: 100 ng of PBS-14 in 100 μl of PBS • Group 14: 1 ng of PBS-14 in 100 μl of PBS • Group 15: 0.1 ng of PBS-14 in 100 μl of PBS • Group 16: 100 ng of PBS-14 and 400 μg of Ova in 100 μl of PBS • Group 17: 1 μg of PBS-96 in 100 μl of PBS • Group 18: 100 ng of PBS-96 in 100 μl of PBS • Group 19: 1 ng of PBS-96 in 100 μl of PBS • Group 20: 0.1 ng of PBS-96 in 100 μl of PBS • Group 21: 100 ng of PBS-96 and 400 μg of Ova in 100 μl of PBS. 24 hours after inoculation, blood samples were collected from the mice and IFNγ levels were detected by ELISA kit. Two ELISA kits were used, Quantikine mouse IFNγ (RD systems) was used to test all samples and ELISA mIFNγ (Diaclone) was used to test group 1, 2, 3, 6, 7, 8, 11, 12, 13, 16, 17, 18 and 21. All sera were diluted before use in ELISA as follows:
Results are expressed as IFNγ concentration (pg/ml) in sera and take into account the dilution factor. FIG. 4 depicts results using the Quantikine mouse IFNγ kit by RD systems. FIG. 4A depicts results of IFNγ levels for mice immunized with PBS-57, FIG. 4B depicts results of IFNγ levels for mice immunized with PBS-14, FIG. 4C depicts results of IFNγ levels for mice immunized with PBS-96 and FIG. 4D depicts results of IFNγ levels for mice immunized with αGalCer. At 0.1 ng, all adjuvant candidates induce cytokine release, but mice immunized with αGalCer produced three- or four-fold less IFNγ than mice immunized with PBS-57, PBS-14 or PBS-96 (1540.57±397.53 pg/ml, 4398.05±880.86 pg/ml, 6669.31±1231.82 pg/ml, 5823.33±720.69 pg/ml respectively).
Another set of mice were used to compare the ability of adjuvant compounds to stimulate in vivo cytokine release by the method described above. Five groups of C57BL/6 mice were administered 100 ng of PBS-57, PBS-14, PBS-96, or PBS-11 in 100 μl PBS or 100 μl PBS alone intravenously. The production of IFNγ in sera was measured 24 hours later by ELISA. FIG. 5 depicts results for mice immunized with 100 ng of PBS-11, PBS-96, PBS-14 and PBS-57.

[3] = tested on: CD8+ T cells responsive to OVA; experiment: SIINFEKL pentamer assay of OVA-specific CD8+ T cells (FACS); format: in vivo, mouse; settings: IM, days 0 and 14, blood day 21
Method: To verify the results obtained using the in vivo cytotoxicity assay described in the Examples above, similar experiments were performed and CD8+ T cell activation was determined by measuring the percentage of OVA-specific CD8+ T cells using a pentamer assay. Briefly, mice were injected intramuscularly with the indicated amounts of OVA and test adjuvant compound at either 1 μg or 100 ng per mouse, respectively on day 0 as follows:
Experiment A: • Group 1: 100 μl of PBS; • Group 2: 50 μg of Ova into 100 μl PBS; • Group 3: 50 μg of Ova with 1 μg αGalCer; • Group 4: 50 μg of Ova with 1 μg PBS-11 • Group 5: 50 μg of Ova with 1 μg PBS-14 • Group 6: 50 μg of Ova with 1 μg PBS-57 • Group 7: 50 μg of Ova with 1 μg PBS-96
Experiment B: • Group 1: 100 μl of PBS; • Group 2: 50 μg of Ova into 100 μl PBS; • Group 3: 50 μg of Ova with 100 ng αGalCer; • Group 4: 50 μg of Ova with 100 ng PBS-11 • Group 5: 50 μg of Ova with 100 ng PBS-14 • Group 6: 50 μg of Ova with 100 ng PBS-57 • Group 7: 50 μg of Ova with 100 ng PBS-96 A second injection was administered to the mice on day 14 and blood was collected from the mice on day 21. The lymphocytes were collected and analyzed by FACS analysis using H-2 K^b SIINFEKL pentamer and CD8 antibody to detect CD8+ T cells responsive to OVA.

[4] = tested on: OVA-specific IgG1; experiment: OVA-specific IgG1 ELISA after intramuscular immunization; format: in vivo, mouse; settings: FIG. 11; IM, 50 μg OVA with 100 ng adjuvant, 14 days post-injection
Method: (§1) Mice (6 per group) were injected intramuscularly with 50 μg of OVA either alone or in combination with 100 ng of the indicated adjuvants (Freund's adjuvant was used as a positive control) as follows: • Group 1: […] of Ova with CFA/IFA (Positive control) • Group 2: 50 μg of Ova • Group 3: 50 μg of Ova and 100 ng of αGalCer • Group 4: 50 μg of Ova and 100 ng of PBS-11 • Group 5: 50 μg of Ova and 100 ng of PBS-14 • Group 6: 50 μg of Ova and 100 ng of PBS-57 • Group 7: 50 μg of Ova and 100 ng of PBS-96 At 14 days post-injection, blood samples were collected and ELISAs for IgG1 and IgG2a were performed using mouse monoclonal antibodies specific for OVA isotype IgG1 or IgG2a. The results are shown as the titer of the antibody in peripheral blood in ng/ml. The results for IgG1 are depicted in FIG. 11 and those for IgG2a are depicted in FIG. 12.

[5] = tested on: OVA specific IgG2a; experiment: OVA-specific IgG2a ELISA after intramuscular immunization; format: in vivo, mouse; settings: FIG. 12; IM, 50 μg OVA with 100 ng adjuvant, 14 days post-injection
Method: as §1

For `CCCCCCCCCCCCCCCCCCCCCCCC(=O)N[C@@H](CO[C@H]1O[C@H](CNC(C)=O)[C@H](O)[C@H](O)[C@H]1O)[C@H](O)[C@H](O)CCCCCCCCCCCCCC` [PBS-96], the “specific lysis of Ova-specific target cells in blood” value ([1]; Example 1, FIG. 1, IV, 1 μg adjuvant with 50 μg Ova, day 11) was “resulted in cytotoxic lysis of Ova-specific target cells”, the “average Ova-specific cytotoxic response” value ([1]; Example 2, FIG. 2, IV, 400 μg Ova with or without 1 μg adjuvant, day 11 blood) was 89.2±10.3% and the “average OVA-specific cytotoxic response” value ([1]; Example 2, FIG. 3, IM, 400 μg Ova with or without 1 μg adjuvant, day 11 blood) was 50.29±42.6%. For the same molecule, the “average Ova-specific cell lysis” value ([1]; Example 4, FIG. 6, IV, 400 μg Ova with or without 1 μg adjuvant (PBS-57 new formulation), day 11 blood) was 89.2±10.3%, the “enhancement of the CD8+ T cell response (specific lysis) at low doses” value ([1]; Example 5 Experiments A and B, FIGS. 7 and 8, 50 μg OVA with 100 ng or 10 ng adjuvant intramuscularly) was “unexpectedly better than other adjuvants” and the “IFNγ concentration in sera” value ([2]; 0.1 ng IV) was 5823.33 ± 720.69 pg/mL. For the same molecule, the “IFNγ concentration in sera” value ([2]; 1 ng IV) was 6271.95 ± 3737.53 pg/mL, the “IFNγ concentration in sera” value ([2]; 100 ng IV) was 19679.89 ± 1443.48 pg/mL and the “IFNγ concentration in sera” value ([2]; 1 μg IV) was 17720.11 ± 2869.97 pg/mL. The “percentage of OVA specific CD8+ T cells” value ([3]; Example 6 Experiment A, FIG. 9, 50 μg Ova with 1 μg adjuvant) was “enhanced the percentage of OVA specific CD8+ T cells”, the “percentage of OVA specific CD8+ T cells” value ([3]; Example 6 Experiment B, FIG. 10, 50 μg Ova with 100 ng adjuvant) was “surprisingly much better at enhancing the CD8+ T cell response” and the “OVA-specific IgG1 titer in peripheral blood” value [4] was “able to elicit a robust IgG1 titer”. The “OVA specific IgG2a titer in peripheral blood” value [5] was “about as well as Freund's adjuvant”.
